Values quoted from earlier work in patent publication US12465589B2, “Method and composition for treating CNS disorders” (IGC Pharma IP, LLC, priority 2018, dated 2025).

Key:
[1] = test system: acetylcholinesterase (AChE); conditions: THC 50 micromolar
[2] = literature reports
Aβ protein = Aβ protein (Homo sapiens, UniProt P05067); conditions: in vitro
AD patients = conditions: supplementation

Sequence of Aβ protein (P05067 672-713 limits assumed): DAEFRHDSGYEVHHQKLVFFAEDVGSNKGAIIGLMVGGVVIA

Q: For `CCCCCc1cc(O)c2c(c1)OC(C)(C)[C@@H]1CCC(C)=C[C@@H]21` [THC, Δ9-tetrahydrocannabinol], which “AChE-induced amyloid β-peptide (Aβ) aggregation” value [1] is on record?
A: The value was “prevents”.

Q: And the “inhibition of acetylcholinesterase (AChE)” value [1]?
A: Its value is “competitively inhibits”.

Q: What about the “side effects of ingestion” value [2] of the same compound?
A: Its value is “acute psychotic reactions, anxiety, impaired neuropsychological performance, impaired memory, executive functioning disorder, mitochondrial dysfunction, neuron apoptosis”.

Q: For `COc1cc(/C=C/C(=O)CC(=O)/C=C/c2ccc(O)c(OC)c2)ccc1O` [curcumin], which “aggregation of Aβ” value (Aβ protein) is on record?
A: The value was “prevent the aggregation of Aβ”.

Q: And the “binding to Aβ protein” value (Aβ protein)?
A: Its value is “bind to Aβ protein”.

Q: For `COc1ccc2[nH]cc(CCNC(C)=O)c2c1` [melatonin, N-acetyl-5-methoxytryptamine], which circadian rhythmicity (AD patients) is on record?
A: Its circadian rhythmicity is “improve circadian rhythmicity”.

Q: And the memory (AD patients)?
A: The memory was “beneficial effects on memory”.
